Measured values as given in US11279727B2, “Anti-viral compounds and methods of use” (Metro International Biotech, LLC, priority 2020, dated 2022).
pEC50: −log10 of the molar value.

Tested on: SARS-CoV-2, USA-WA1/2020
Assay: Antiviral assay: inhibition of SARS-CoV-2 cytopathic effect, neutral red
Format: cell-based
Conditions: Severe acute respiratory syndrome coronavirus 2; Vero 76 cells, CPE inhibition by 50%, neutral red; i) and ii) are separate determinations; read-out: Anti-viral Assay (EC50)

**Q.** `N#C[C@@]1(c2ccc3c(N)ncnn23)O[C@H](CO)[C@@H](O)[C@H]1O` [GS-441524] was tested. Which pEC50 did it give?
**A.** The pEC50 was 5.96 to 6.30.
